# Values quoted from earlier work in patent US20060235005A1, “Use of phosphodiesterase 5 (PDE5) inhibitors in the treatment of schizophrenia” (Oak Labs, Corp., priority 2005, published 2006).
# Like-named read-outs stand apart in the source and are kept apart here.
# Key:
# [1] = system: animal models
# [2] = system: schizophrenia patients; conditions: 8-week trial
# [3] = system: rats; conditions: oral 0.3-1.0 mg kg-1, rats
# [4] = system: anesthetized dogs; conditions: intravenous 1-300 μg kg-1, anesthetized dogs
# [5] = system: patients with schizophrenia; conditions: compared with haloperidol
# [6] = system: male schizophrenia patients
# [7] = system: healthy young men; conditions: 100 mg
# [8] = system: men with cardiovascular disease
# [9] = system: middle cerebral artery occlusion; conditions: 2-5 mg/kg daily for seven days, vs vehicle
# [10] = system: cortical cGMP levels; conditions: subchronic administration, rats
# [11] = system: mice; conditions: 2, 4, & 8 mg/kg
# [12] = system: rats
# [13] = system: rats; conditions: 3 mg/kg and 10 mg/kg p.o., at 24 hours
# [14] = system: mice; conditions: 3 mg/kg, at 48 hours
# [15] = system: hyperammonemic rats; conditions: chronic oral treatment for 28 days
# [16] = system: women affected by arousal disorders
# [17] = system: men with erectile dysfunction; conditions: phase III, including patients with cardiovascular diseases, vs placebo
# [18] = system: healthy subjects; conditions: single 20-mg dose
# [19] = in vivo
# [20] = single oral dose of 10, 20 and 40 mg
smiles,measurement,setting,value
N[C@@H]1CONC1=O [D-cycloserine],tolerance for memory effects,[1]; after two weeks of daily dosing,tolerance for memory effects develops
same,learning and memory,[1]; single dose administration,improves learning and memory
same,cognitive deficits,[2],failed to improve cognitive deficits
CCCOc1ccc(S(=O)(=O)NCCC2CCCN2C)cc1-c1nc2c(CCC)nn(C)c2c(=O)[nH]1 (centres unmarked) [DA-8159],erectogenic activity,[3],erectogenic activity
same,intracavernosal pressure,[4],potentiated an increase in intracavernosal pressure in a dose-related manner
Cc1nc2n(c(=O)c1CCN1CCC(c3noc4cc(F)ccc34)CC1)CCCC2 [risperidone],reduction in relapse rate,[5],43%
CCCc1nn(C)c2c(=O)[nH]c(-c3cc(S(=O)(=O)N4CCN(C)CC4)ccc3OCC)nc12 [sildenafil],safety and efficacy for erectile dysfunction,[6],safe and effective
same,actual performance (attention / recognition),[7],did not significantly improve
same,event-related brain potentials (ERPs) patterns,[7],significantly affected
same,terminal half-life,in vivo,3 to 5 h
same,absolute bioavailability,oral administration,40%
same,time to peak plasma concentration (Tmax),"oral, fasting state",0.5 to 2 h
same,men with improved erectile function,[8]; men with ischemic heart disease,up to 70%
same,synergistic effect on blood pressure with antihypertensive agents,"[8]; patients not taking organic nitrates, ACE inhibitors, adrenoceptor blockers, calcium channel blockers, diuretics",does not have a synergistic effect on blood pressure
same,functional recovery (foot fault test and adhesive removal test),[9],significantly greater functional recovery
same,cellular proliferation in the subventricular zone and dentate gyrus,[9]; bromodeoxyuridine labeling,greater cellular proliferation
same,cortical cGMP levels,[10],increase cortical cGMP levels
same,acquisition of maze learning,[11],dose-dependently improved acquisition
same,effect on behavioral effects of dopamine agonists,[12]; 10 mg/kg,antagonized behavioral effects
same,effect on behavioral effects of dopamine agonists,[12]; single dose 1 mg/kg,enhanced behavioral effects
same,retention of object recognition task,[13],significantly improved retention
same,retention of passive avoidance task,[14],improved retention
same,cGMP levels in brains,[15],normalized cGMP levels
same,performance on learning tasks,[15],restored performance on learning tasks
same,sexual performance,[16],improve sexual performance
CN1CC(=O)N2[C@H](c3ccc4c(c3)OCO4)c3[nH]c4ccccc4c3C[C@@H]2C1=O [tadalafil],incidence of adverse events,[17],no different from that in placebo-treated patients
same,"change in heart rate, standing systolic or diastolic blood pressure",[18],no significant change
same,maximum Tmax,[19],2 h
CCCc1nc(C)c2c(=O)[nH]c(-c3cc(S(=O)(=O)N4CCN(CC)CC4)ccc3OCC)nn12 [vardenafil],Tmax,[20],0.7 to 0.9 h
